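Values below derive from 48-hour exposures of cells grown in 96-well plates, with endpoints linearly interpolated between the two concentrations bracketing the appropriate inhibition level. The concentration for 50% growth inhibition is given as GI50. At the TGI there is no net growth.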
Assays:
Assay in all cases: NCI tumour cell line growth inhibition, 48 h
COLO 205 colon = test system: COLO 205 colon
HCT-15 colon = test system: HCT-15 colon
U251 CNS = test system: U251 CNS
SNB-75 CNS = test system: SNB-75 CNS
SNB-19 CNS = test system: SNB-19 CNS
T-47D breast = test system: T-47D breast
MDA-MB-231 breast = test system: MDA-MB-231 breast
HL-60(TB) leukemia = test system: HL-60(TB) leukemia
M14 melanoma = test system: M14 melanoma
OVCAR-4 ovarian = test system: OVCAR-4 ovarian

Row | Structure (SMILES) | GI50 (COLO 205 colon) [µM] | TGI (COLO 205 colon) [µM] | GI50 (HCT-15 colon) [µM] | TGI (HCT-15 colon) [µM] | GI50 (U251 CNS) [µM] | TGI (U251 CNS) [µM] | GI50 (SNB-75 CNS) [µM] | TGI (SNB-75 CNS) [µM] | GI50 (SNB-19 CNS) [µM] | TGI (SNB-19 CNS) [µM] | GI50 (T-47D breast) [µM] | TGI (T-47D breast) [µM] | GI50 (MDA-MB-231 breast) [µM] | TGI (MDA-MB-231 breast) [µM] | GI50 (HL-60(TB) leukemia) [µM] | TGI (HL-60(TB) leukemia) [µM] | GI50 (M14 melanoma) [µM] | TGI (M14 melanoma) [µM] | GI50 (OVCAR-4 ovarian) [µM] | TGI (OVCAR-4 ovarian) [µM]
1 | CS(=O)(=O)CCNCc1cc(-c2cc3c(Nc4ccc(OCc5cccc(F)c5)c(Cl)c4)ncnc3s2)cs1 | 9.61 | > 25 | 5.55 | > 20.9 | 9.34 | > 25 | 7.9 | > 25 | 24.6 | > 25 | 3 | > 23.6 | 6.15 | 19.9 | 4.18 | > 25 | 13.4 | > 25 | 14.4 | > 25
2 | CCC(O)c1ccc(Br)cc1NC(=O)c1cccc(Cl)c1 (stereo not given) | 18.8 | 34.6 | 23.1 | > 100 | 14.1 | 31.8 | 10.8 | > 100 | 37.4 | > 100 | 12.7 | 84.8 | 18.8 | > 100 | 22.3 | 60.1 | 21.3 | 52.3 | 30 | > 100
3 | COc1cc2nc(SCc3cc(OC)c(OC)c(OC)c3)n(Cc3ccccc3)c(=O)c2cc1OC | 1.74 | 6.96 | 1.08 | > 100 | 3.64 | 19.3 | 0.876 | 6.23 | 5.4 | 48.2 | 4.54 | > 65.9 | 4.45 | > 66 | 2.14 | > 100 | 2.11 | > 26.8 | 5.5 | > 100
4 | Cn1c(-c2c(N)n(Nc3cccc(Cl)c3)c3nc(C#N)c(C#N)nc23)nc2ccccc21 | 6.35 | 18.2 | 3.45 | 17.2 | 7.92 | 15.3 | 8.33 | 35.1 | 10.7 | 24.3 | 13.2 | > 50 | 6.47 | 17.7 | 8.19 | > 50 | 6.51 | 20 | 1.36 | 16.4
5 | CC(C)c1c(-c2ccccc2)nc2c(C#N)c[nH]n2c1=O | 25.1 | 75.2 | 31.8 | > 100 | 33.8 | > 100 | 21.4 | > 95.2 | 30.8 | > 100 | 25.2 | 87.6 | 33 | > 100 | 22.3 | 60.4 | 30.6 | > 100 | 25.6 | > 90
6 | CC(=O)Oc1ccc(C23c4ccccc4C2(OC(C)=O)c2cc(OC(C)=O)ccc23)cc1 (stereo not given) | 14.5 | 29.1 | 3.81 | 17.7 | 2.34 | 5.63 | 6.49 | 54.7 | 4.64 | 15.5 | 2.22 | 7.45 | 6 | 33.1 | 2.41 | 6.72 | 14 | 32.1 | 30 | > 100
